Reference: patent US20050288347A1, “Certain triazole-based compounds, compositions, and uses thereof” (priority 2004, published 2005)
“Also recorded” adds a separate entry of the source.

molecular target: protein kinase; assay: HTS ATP-utilizing enzyme assay, off-chip mobility-shift format (Caliper HTS 250); format: biochemical, human; details: kinase(s) for which the compound exhibits protein kinase inhibitory activity; test compound 10 μM; active = greater than three-sigma from the mean activity of inactive compounds
Method in brief: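 Kinase reactions ran 2.5 h at 20 to 22 °C with test compound at 10 μM, in a HEPES pH 7.5 master buffer containing Triton X-100 and BSA. Peptide substrate and phosphorylated product separated by mobility shift; inhibition normalized to DMSO (0%) and EDTA (100%) controls, with three-sigma thresholds for hits.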

Kinase | Structure (SMILES)
GSK3-β; also recorded: GSK3-α | C=CCn1c(S)nnc1-c1cc(OC)c(OC)c(OC)c1 [4-allyl-5-(3,4,5-trimethoxyphenyl)-4H-1,2,4-triazole-3-thiol]
GSK3-α | C=CCn1c(S)nnc1COc1ccc(Cl)cc1 [4-allyl-5-((4-chlorophenoxy)methyl)-4H-1,2,4-triazole-3-thiol]
AURORA-A | COc1ccccc1-c1nnc(S)n1Cc1ccccc1 [4-benzyl-5-(2-methoxyphenyl)-4H-1,2,4-triazole-3-thiol]
AURORA-A | COc1ccccc1OCc1nnc(S)n1Cc1ccccc1 [4-benzyl-5-((2-methoxyphenoxy)methyl)-4H-1,2,4-triazole-3-thiol]
AURORA-A | Sc1nnc(CNc2ccc(Cl)cc2)n1Cc1ccccc1 [4-benzyl-5-((4-chlorophenylamino)methyl)-4H-1,2,4-triazole-3-thiol]
AKT1 | CCc1ccc(OCc2nnc(S)n2Cc2ccccc2)cc1 [4-benzyl-5-((4-ethylphenoxy)methyl)-4H-1,2,4-triazole-3-thiol]
CHEK2 | Fc1ccc(NCc2nnc(S)n2Cc2ccccc2)cc1 [4-benzyl-5-((4-fluorophenylamino)methyl)-4H-1,2,4-triazole-3-thiol]
GSK3-α | Cc1cccc(-c2nnc(S)n2Cc2ccccc2)c1 [4-benzyl-5-m-tolyl-4H-1,2,4-triazole-3-thiol]
GSK3-α | CCn1c(S)nnc1CNc1cccc(C(F)(F)F)c1 [4-ethyl-5-((3-(trifluoromethyl)phenylamino)methyl)-4H-1,2,4-triazole-3-thiol]
GSK3-β; also recorded: GSK3-α | Cn1c(S)nnc1COc1cccc2ccccc12 [4-methyl-5-((naphthalen-1-yloxy)methyl)-4H-1,2,4-triazole-3-thiol]
GSK3-α | Cn1c(S)nnc1COc1ccc2ccccc2c1 [4-methyl-5-((naphthalen-2-yloxy)methyl)-4H-1,2,4-triazole-3-thiol]
GSK3-β; also recorded: GSK3-α | CCCOc1ccc(CCc2nnc(S)n2-c2ccccc2)cc1 [4-phenyl-5-(4-propoxyphenethyl)-4H-1,2,4-triazole-3-thiol]
LCK | Sc1nnc(-c2ccncc2)n1-c1ccccc1 [4-phenyl-5-(pyridin-4-yl)-4H-1,2,4-triazole-3-thiol]
GSK3-β; also recorded: GSK3-α | CCn1c(S)nnc1CCc1nc2ccccc2[nH]1 [5-(2-(1H-benzo[d]imidazol-2-yl)ethyl)-4-ethyl-4H-1,2,4-triazole-3-thiol]
GSK3-α; also recorded: GSK3-β | Cn1c(S)nnc1CCc1nc2ccccc2[nH]1 [5-(2-(1H-benzo[d]imidazol-2-yl)ethyl)-4-methyl-4H-1,2,4-triazole-3-thiol]
GSK3-α; also recorded: GSK3-β | Cc1ccc(-n2c(S)nnc2CCc2nc3ccccc3[nH]2)cc1 [5-(2-(1H-benzo[d]imidazol-2-yl)ethyl)-4-p-tolyl-4H-1,2,4-triazole-3-thiol]
PDGFRR-α | C=C(C)Cn1c(S)nnc1-c1ccccc1Br [5-(2-bromophenyl)-4-(2-methylallyl)-4H-1,2,4-triazole-3-thiol]
CDK2-cyclinE | C=C(C)Cn1c(S)nnc1-c1ccccc1OC [5-(2-methoxyphenyl)-4-(2-methylallyl)-4H-1,2,4-triazole-3-thiol]
CDK2-cyclinA and CDK2-cyclinE and CDK5 | COc1ccc(-n2c(S)nnc2-c2ccccc2OC)cc1 [5-(2-methoxyphenyl)-4-(4-methoxyphenyl)-4H-1,2,4-triazole-3-thiol]
CDK2-cyclinE | COc1ccccc1-c1nnc(S)n1C [5-(2-methoxyphenyl)-4-methyl-4H-1,2,4-triazole-3-thiol]
CDK2-cyclinA and CDK2-cyclinE and CDK5 | COc1ccccc1-c1nnc(S)n1-c1ccc(C)cc1 [5-(2-methoxyphenyl)-4-p-tolyl-4H-1,2,4-triazole-3-thiol]
MSK2 | COc1ccc(-c2nnc(S)n2Cc2ccco2)cc1OC [5-(3,4-dimethoxyphenyl)-4-(furan-2-ylmethyl)-4H-1,2,4-triazole-3-thiol]
GSK3-β; also recorded: GSK3-α | COc1ccc(-c2nnc(S)n2-c2ccc(C)cc2)cc1 [5-(4-methoxyphenyl)-4-p-tolyl-4H-1,2,4-triazole-3-thiol]
GSK3-α | COc1ccccc1OCc1nnc(S)n1C [5-((2-methoxyphenoxy)methyl)-4-methyl-4H-1,2,4-triazole-3-thiol]
GSK3-α | CN(C)c1cccc(OCc2nnc(S)n2-c2ccccc2)c1 [5-((3-(dimethylamino)phenoxy)methyl)-4-phenyl-4H-1,2,4-triazole-3-thiol]
GSK3-β; also recorded: GSK3-α | CCn1c(S)nnc1CNc1cccc(Cl)c1 [5-((3-chlorophenylamino)methyl)-4-ethyl-4H-1,2,4-triazole-3-thiol]
GSK3-β; also recorded: GSK3-α | Cc1ccc(-n2c(S)nnc2CNc2cccc(Cl)c2)cc1 [5-((3-chlorophenylamino)methyl)-4-p-tolyl-4H-1,2,4-triazole-3-thiol]
GSK3-β; also recorded: GSK3-α | Sc1nnc(CNc2cccc(Cl)c2)n1-c1ccccc1 [5-((3-chlorophenylamino)methyl)-4-phenyl-4H-1,2,4-triazole-3-thiol]
GSK3-α | CCn1c(S)nnc1CSc1nc(C)cc(C)n1 [5-((4,6-dimethylpyrimidin-2-ylthio)methyl)-4-ethyl-4H-1,2,4-triazole-3-thiol]
CDK2-cyclinE | Cn1c(S)nnc1COc1ccc(Br)cc1 [5-((4-bromophenoxy)methyl)-4-methyl-4H-1,2,4-triazole-3-thiol]

Structure (SMILES) | Kinase
Cc1cccc(OCc2nnc(S)n2C2CCCCC2)c1 [4-cyclohexyl-5-(m-tolyloxymethyl)-4H-1,2,4-triazole-3-thiol] | GSK3-α; also recorded: CHEK1; also recorded: AURORA-A
CCn1c(S)nnc1COc1ccccc1OC [4-ethyl-5-((2-methoxyphenoxy)methyl)-4H-1,2,4-triazole-3-thiol] | GSK3-α; also recorded: GSK3-β; also recorded: AURORA-A
CCn1c(S)nnc1COc1ccc(OC)cc1 [4-ethyl-5-((4-methoxyphenoxy)methyl)-4H-1,2,4-triazole-3-thiol] | GSK3-β; also recorded: GSK3-α; also recorded: CDK2-cyclinE
COc1ccccc1-c1nnc(N)[nH]1 [5-(2-methoxyphenyl)-4H-1,2,4-triazol-3-amine] | AURORA-A; also recorded: CDK2/CyclinE; also recorded: CHEK2
Sc1nnc(CNc2cccc(Cl)c2)n1CCc1ccccc1 [5-((3-chlorophenylamino)methyl)-4-phenethyl-4H-1,2,4-triazole-3-thiol] | GSK3-α; also recorded: GSK3-β; also recorded: AURORA-A

same assay, conditions: test compound 10 μM; active = activity greater than three-sigma from the mean of the predominately inactive population for that enzyme

protein kinase against which the compound exhibits inhibitory activity (Table 3) | Structure (SMILES)
AURORA-A; also recorded: DYRK2 | O=C(O)c1ccc(CSc2nnc(-c3cccnc3)[nH]2)cc1 [4-((5-(pyridin-3-yl)-4H-1,2,4-triazol-3-ylthio)methyl)benzoic acid]
GSK3-α | CC(C)(C)c1nnc(SCc2ccncc2)[nH]1 [4-((5-tert-butyl-4H-1,2,4-triazol-3-ylthio)methyl)pyridine]
GSK3-β; also recorded: GSK3-α | CCc1nnc(SCc2ccccc2)n1Cc1ccc2c(c1)OCO2 [4-(benzo[d][1,3]dioxol-5-ylmethyl)-3-(benzylthio)-5-ethyl-4H-1,2,4-triazole]
GSK3-β; also recorded: GSK3-α | CC(C)=CCSc1nnc(C)n1Cc1ccco1 [4-(furan-2-ylmethyl)-3-methyl-5-(3-methylbut-2-enylthio)-4H-1,2,4-triazole]
DYRK2 | C=CCn1c(CCC2CCCC2)nnc1SCC=C(C)C [4-allyl-3-(2-cyclopentylethyl)-5-(3-methylbut-2-enylthio)-4H-1,2,4-triazole]
GSK3-β; also recorded: GSK3-α | Cc1nnc(SCc2ccccc2)n1Cc1ccccc1 [4-benzyl-3-(benzylthio)-5-methyl-4H-1,2,4-triazole]
MSK2 | CSc1nnc(COc2ccccc2C)n1Cc1ccccc1 [4-benzyl-3-(methylthio)-5-(o-tolyloxymethyl)-4H-1,2,4-triazole]
AURORA-A | CCn1c(COc2ccc(C)cc2)nnc1SCc1ccc(C)cc1 [4-ethyl-3-(4-methylbenzylthio)-5-(p-tolyloxymethyl)-4H-1,2,4-triazole]
c-TAK1 and CDK1 | CCn1c(COc2cccc3ccccc23)nnc1SCC(C)C [4-ethyl-3-(isobutylthio)-5-((naphthalen-1-yloxy)methyl)-4H-1,2,4-triazole]
AKT1 | Cc1ccc(CSc2nnc(-c3ccccc3C)n2C)cc1 [4-methyl-3-(4-methylbenzylthio)-5-o-tolyl-4H-1,2,4-triazole]

Structure (SMILES) | protein kinase against which the compound exhibits inhibitory activity (Table 3)
O=[N+]([O-])c1ccc(-c2nnc(SCc3ccncc3)[nH]2)cc1 [4-((5-(4-nitrophenyl)-4H-1,2,4-triazol-3-ylthio)methyl)pyridine] | FLT-3; also recorded: GSK3-β; also recorded: GSK3-α
O=C(O)c1ccc(CSc2nnc(-c3cccs3)[nH]2)cc1 [4-((5-(thiophen-2-yl)-4H-1,2,4-triazol-3-ylthio)methyl)benzoic acid] | DYRK2; also recorded: AURORA-A; also recorded: FLT-3
c1csc(-c2nnc(SCc3ccncc3)[nH]2)c1 [4-((5-(thiophen-2-yl)-4H-1,2,4-triazol-3-ylthio)methyl)pyridine] | DYRK2; also recorded: AURORA-A; also recorded: FLT-3
Cc1cccc(-c2nnc(SCc3ccc(C(=O)O)cc3)[nH]2)c1 [4-((5-m-tolyl-4H-1,2,4-triazol-3-ylthio)methyl)benzoic acid] | FLT-3; also recorded: DYRK2; also recorded: AURORA-A
